What was measured:
Assay in all cases: Bliss excess, mean over the matrix (fraction); higher = more synergy
[1] = tested on: MIA-PaCa-2 (Pancreatic Carcinoma)
Outline: (§1)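 Cell lines in DMEM/F12 or RPMI with 10% FBS were plated in 1536-well plates, held 24 hours at 37°C, 5% CO2, then given two-drug dose matrices for 72 hours (DMSO typically 0.2%). Viability was read by CellTiter-Glo 2.0 luminescence and scaled as inhibition from 0 (vehicle wells) to 1 (blank wells). Combination Emax is the second-highest inhibition in the matrix; Bliss excess is observed combination effect minus expected EA + EB − EA·EB, EA and EB being single-agent effects.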

[2] = tested on: NB69 (Neuroblastoma)
Outline: as §1

[3] = tested on: NCI-H727 (Other Solid Carcinomas)
Outline: as §1

[4] = tested on: AMO-1 (Plasma Cell Myeloma)
Outline: as §1

[5] = tested on: KARPAS-299 (T-Cell Non-Hodgkin's Lymphoma)
Outline: as §1

[6] = tested on: MLMA (Other Blood Carcinomas)
Outline: as §1

[7] = tested on: BT-549 (Breast Carcinoma)
Outline: as §1

[8] = tested on: UACC-62 (Melanoma)
Outline: as §1

[9] = tested on: D-263MG (Glioblastoma)
Outline: as §1

[10] = tested on: SW13 (Other Solid Carcinomas)
Outline: as §1

[11] = tested on: EoL-1-cell (Acute Myeloid Leukemia)
Outline: as §1

[12] = tested on: Caov-4 (Ovarian Carcinoma)
Outline: as §1

[13] = tested on: RF-48 (B-Cell Non-Hodgkin's Lymphoma)
Outline: as §1

[14] = tested on: EFM-19 (Breast Carcinoma)
Outline: as §1

[15] = tested on: TK10 (Kidney Carcinoma)
Outline: as §1

[16] = tested on: PANC-04-03 (Pancreatic Carcinoma)
Outline: as §1

Structure (SMILES) | Bliss excess [1] | Bliss excess [2] | Bliss excess [3] | Bliss excess [4] | Bliss excess [5] | Bliss excess [6] | Bliss excess [7] | Bliss excess [8] | Bliss excess [9] | Bliss excess [10] | Bliss excess [11] | Bliss excess [12] | Bliss excess [13] | Bliss excess [14] | Bliss excess [15] | Bliss excess [16]
C[C@@H]1COCCN1c1cc(C2([S@](C)(=N)=O)CC2)nc(-c2ccnc3[nH]ccc23)n1 [AZD6738] + Nc1ccn([C@@H]2O[C@H](CO)[C@@H](O)C2(F)F)c(=O)n1 [Gemcitabine] (first compound max 10 µM, 7x7, partner max 0.3 µM) | 0.0999 | 0.0147 | 0.0121 | 0.0048 | 0.0607 | -0.0777 | -0.0194 | 0.0114 | 0.102 | 0.0493 | -0.081 | 0.0431 | 0.0277 | 0.127 | -0.0417 | -0.0244
C[C@@H](Nc1cc(F)cc(F)c1)c1cc(C(=O)N(C)C)cc2c(=O)cc(N3CCOCC3)oc12 [AZD8186] + C1CN(CCC1(C(=O)N[C@@H](CCO)C2=CC=C(C=C2)Cl)N)C3=NC=NC4=C3C=CN4 [AZD5363] (first compound max 10 µM, 7x7, partner max 10 µM) | 0.0056 | 0.0248 | -0.0149 | 0.0309 | 0.0092 | -0.0797 | -0.0011 | -0.0382 | -0.0348 | 0.0092 | 0 | -0.0338 | -0.033 | -0.0075 | -0.0661 | -0.0712
C[C@@H](Nc1cc(F)cc(F)c1)c1cc(C(=O)N(C)C)cc2c(=O)cc(N3CCOCC3)oc12 [AZD8186] + CC(=O)c1c(C)c2cnc(Nc3ccc(N4CCNCC4)cn3)nc2n(C2CCCC2)c1=O [Palbociclib] (first compound max 10 µM, 7x7, partner max 10 µM) | 0.0485 | -0.0111 | 0.0923 | 0.126 | 0.0912 | 0.0443 | 0.0464 | 0.0303 | 0.0181 | 0.044 | 0.0996 | 0.0078 | 0.0054 | -0.0026 | -0.0069 | 0.0107
C[C@@H](Oc1cc(-c2cnn(C3CCNCC3)c2)cnc1N)c1c(Cl)ccc(F)c1Cl [Crizotinib] + CC1=C(C(=CC=C1)Cl)NC(=O)C2=CN=C(S2)NC3=CC(=NC(=N3)C)N4CCN(CC4)CCO [Dasatinib] (first compound max 10 µM, 7x7, partner max 2 µM) | 0.0119 | 0.0051 | -0.0009 | -0.0368 | -0.0263 | -0.0411 | 0.0139 | -0.0656 | 0.0932 | -0.0173 | 0.0101 | -0.0441 | -0.119 | 0.0874 | 0.0333 | -0.0683
C[C@@H](Oc1cc(-c2cnn(C3CCNCC3)c2)cnc1N)c1c(Cl)ccc(F)c1Cl [Crizotinib] + Cn1cnc2c(F)c(Nc3ccc(Br)cc3Cl)c(C(=O)NOCCO)cc21 [Selumetinib] (first compound max 10 µM, 7x7, partner max 10 µM) | 0.0058 | -0.0283 | -0.0226 | 0.0122 | -0.032 | -0.116 | -0.063 | -0.0229 | -0.0866 | -0.0324 | 0.0352 | -0.025 | -0.0548 | -0.0327 | -0.0705 | -0.0194
CS(=O)(=O)CCNCc1ccc(-c2ccc3ncnc(Nc4ccc(OCc5cccc(F)c5)c(Cl)c4)c3c2)o1 [Lapatinib] + Cn1cnc2c(F)c(Nc3ccc(Br)cc3Cl)c(C(=O)NOCCO)cc21 [Selumetinib] (first compound max 10 µM, 7x7, partner max 10 µM) | 0.0484 | -0.0397 | 0.0299 | 0.0408 | 0.0736 | 0.0059 | -0.0473 | -0.0119 | -0.0859 | 0.0429 | -0.038 | 0.0493 | -0.0137 | -0.0395 | -0.008 | 0.0145
CS(=O)(=O)CCNCc1ccc(-c2ccc3ncnc(Nc4ccc(OCc5cccc(F)c5)c(Cl)c4)c3c2)o1 [Lapatinib] + NC1(c2ccc(-c3nc4ccn5c(=O)[nH]nc5c4cc3-c3ccccc3)cc2)CCC1 [MK-2206] (first compound max 10 µM, 7x7, partner max 10 µM) | 0.0112 | 0.0688 | 0.0172 | -0.048 | 0.0874 | -0.093 | -0.0275 | 0.0426 | -0.0222 | -0.0229 | 0.0098 | -0.05 | 0.0003 | 0.0455 | 0.0616 | 0.0116
